Substitutions are numbered along the chain they refer to.
Tests used:
Format in all cases: binding
GLUT9 [1] = biological target: T1, GLUT9 (Homo sapiens, UniProt Q9NRM0, W336A); assay: MST with purified protein
T1 construct: gene SLC2A9; full length human SLC2A9, N-terminal twin strep and FLAG tag
T1 sequence (Q9NRM0 1-540 W336A): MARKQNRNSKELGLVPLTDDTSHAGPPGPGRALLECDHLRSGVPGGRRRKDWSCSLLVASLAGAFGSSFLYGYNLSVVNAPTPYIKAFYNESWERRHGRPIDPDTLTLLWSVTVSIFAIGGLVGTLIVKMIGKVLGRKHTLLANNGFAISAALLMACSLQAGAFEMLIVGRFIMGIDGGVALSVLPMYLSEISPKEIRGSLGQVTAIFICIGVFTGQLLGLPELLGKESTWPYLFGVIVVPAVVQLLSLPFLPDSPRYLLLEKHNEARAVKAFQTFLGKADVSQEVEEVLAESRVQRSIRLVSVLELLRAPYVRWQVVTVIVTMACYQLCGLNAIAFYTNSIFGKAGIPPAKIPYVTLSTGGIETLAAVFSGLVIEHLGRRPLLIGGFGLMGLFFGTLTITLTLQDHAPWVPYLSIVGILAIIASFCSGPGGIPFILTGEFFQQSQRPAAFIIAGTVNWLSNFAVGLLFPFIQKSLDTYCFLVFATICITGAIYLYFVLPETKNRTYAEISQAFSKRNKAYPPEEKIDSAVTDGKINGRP

GLUT9 [2] = biological target: T2, GLUT9 (Homo sapiens, UniProt Q9NRM0, Y327A); assay: MST with purified protein
T2 construct: gene SLC2A9; full length human SLC2A9, N-terminal twin strep and FLAG tag
T2 sequence (Q9NRM0 1-540 Y327A): T1 sequence (Q9NRM0 1-540 W336A) with Y327A, A336W

GLUT9 [3] = biological target: T3, GLUT9 (Homo sapiens, UniProt Q9NRM0, N458A); assay: MST with purified protein
T3 construct: gene SLC2A9; full length human SLC2A9, N-terminal twin strep and FLAG tag
T3 sequence (Q9NRM0 1-540 N458A): T1 sequence (Q9NRM0 1-540 W336A) with A336W, N458A

GLUT9 [4] = biological target: T4, GLUT9 (Homo sapiens, UniProt Q9NRM0, C427A); assay: MST with purified protein
T4 construct: gene SLC2A9; full length human SLC2A9, N-terminal twin strep and FLAG tag
T4 sequence (Q9NRM0 1-540 C427A): T1 sequence (Q9NRM0 1-540 W336A) with A336W, C427A

GLUT9 [5] = biological target: T5, GLUT9 (Homo sapiens, UniProt Q9NRM0); assay: cryo-EM structure ([…] Å), MST Kd; patch clamp IC50 […]
T5 construct: gene SLC2A9; full length human SLC2A9, N-terminal twin strep and FLAG tag
T5 sequence (Q9NRM0 1-540): T1 sequence (Q9NRM0 1-540 W336A) with A336W

GLUT9 [6] = biological target: T6, GLUT9 (Homo sapiens, UniProt Q9NRM0, W336F); assay: MST with purified protein
T6 construct: gene SLC2A9; full length human SLC2A9, N-terminal twin strep and FLAG tag
T6 sequence (Q9NRM0 1-540 W336F): T1 sequence (Q9NRM0 1-540 W336A) with A336F

GLUT9 [7] = biological target: T7, GLUT9 (Homo sapiens, UniProt Q9NRM0, N333A); assay: MST with purified protein
T7 construct: gene SLC2A9; full length human SLC2A9, N-terminal twin strep and FLAG tag
T7 sequence (Q9NRM0 1-540 N333A): T1 sequence (Q9NRM0 1-540 W336A) with N333A, A336W

GLUT9 [8] = biological target: T5, GLUT9; assay: cryo-EM structure ([…] Å), MST Kd; patch clamp transport current
GLUT9 [9] = biological target: T8, GLUT9 (Homo sapiens, UniProt Q9NRM0, E364A); assay: MST with purified protein
T8 construct: gene SLC2A9; full length human SLC2A9, N-terminal twin strep and FLAG tag
T8 sequence (Q9NRM0 1-540 E364A): T1 sequence (Q9NRM0 1-540 W336A) with A336W, E364A

GLUT9 [10] = biological target: T9, GLUT9 (Homo sapiens, UniProt Q9NRM0, Y327Q); assay: MST with purified protein
T9 construct: gene SLC2A9; full length human SLC2A9, N-terminal twin strep and FLAG tag
T9 sequence (Q9NRM0 1-540 Y327Q): T1 sequence (Q9NRM0 1-540 W336A) with Y327Q, A336W

| Kd (GLUT9 [6]) | Kd (GLUT9 [7]) | Kd (GLUT9 [8]) | Kd (GLUT9 [9]) | Kd (GLUT9 [10]) | SMILES | Kd (GLUT9 [1]) | Kd (GLUT9 [2]) | Kd (GLUT9 [3]) | Kd (GLUT9 [4]) | Kd (GLUT9 [5]) |
| --- | --- | --- | --- | --- | --- | --- | --- | --- | --- | --- |
| – | – | – | – | – | O=c1cc(-c2ccc(O)cc2)oc2cc(O)cc(O)c12 [API, apigenin] | 1.3 ± 0.3 µM | 2.2 ± 0.7 µM | 4.1 ± 1.1 µM | 1 ± 0.2 µM | 0.5 ± 0.1 µM |
| 361 ± 80.3 µM | 472 ± 52.2 µM | 231 ± 17.1 µM | 681 ± 126 µM | 867 ± 168 µM | O=c1[nH]c(=O)c2[nH]c(=O)[nH]c2[nH]1 [UA, urate] | – | – | – | – | – |

Source: publication PMC11169512, “Structural basis for urate recognition and apigenin inhibition of human GLUT9” (Nature Communications, 2024)
